Measured values taken from patent publication US20250051355A1, “COMPOUNDS, COMPOSITIONS, AND METHODS” (ACONCAGUA BIO, INC., priority 2023, published 2025).

Assays:
[1] = biological target: human calcitonin receptor (CTR) and RAMP3 (AMY3) (Homo sapiens, UniProt O60896+P30988); test: Amylin Receptor cAMP Assay II; type: cell-based; conditions: COS-7/AMY3 cells, cAMP dynamic 2 kit, read-out: Amylin Receptor cAMP Stimulation Activity: EC50
Excerpt: Amylin Receptor cAMPAssay II
AMYRs are heterodimers of the class B calcitonin (CT) G-protein-coupled receptor (CTR) and receptor activity-modifying proteins (RAMPs). All three RAMPs can interact with the CTR and form AMY1, AMY2, AMY3 with RAMP1, RAMP2 and RAMP3, respectively. Like other class B1 GPCRs, the CT receptor family is canonically coupled to Gs-mediated cAMP production, and measurement of cAMP accumulation has been the primary assay used to determine peptide selectivity and potency.
(§1) To optimize functional activity directed toward Gas coupling, COS-7 cells were stably transfected with human calcitonin receptor (CTR) and RAMP3, simultaneously. 100×concentration of compound working solutions were prepared with 4-fold serial dilution in 384-well Echo LDV plate (Labcyte, Cat #LP-0200-BC). 200 nL/well 100×concentration of compound working solutions were moved to 384-well white microplate (Perkin Elmer, Cat #6007680) using Labcyte ECHO550. […] cells/mL COS-7/AMY3 cell suspensions prepared with assay buffer [HBSS containing 20 mM HEPES (Gibco, Cat #15630-080), 0.5 mM IBMX (Sigma, Cat #15879) and 0.1% Casein (Sigma, Cat #C4765)], 20 μL cell suspensions were added to each well of previous generated assay plate which already contains 200 nL compound at 100×concentration using ThermoFisher Multidrop Combi (2000 cells/well). Seal the plate and incubate at 37° C. with 5% CO2 for 30 min.
(§2) After incubation, the cAMP assay signal was generated using cAMP dynamic 2 kit (Revvity, Cat #62AM4PEC). 10 μL cAMP-d2 working solution was added to each well, followed by 10 μL Anti-cAMP antibody-cryptate working solution which was added to each well using CERTUS FLEX LIQUID DISPENSER The samples were then incubated at room temperature for 1 hour protected from light. the fluorescence was read at 665 and 615 nm with Reader PerkinElmer EnVision 2105.

[2] = biological target: T1, human calcitonin receptor (CTR) (Homo sapiens, UniProt P30988); test: Calcitonin receptor (CTR) cAMP Assay; type: cell-based; conditions: COS7-human CTR Clone #2 cells, cAMP dynamic 2 kit; read-out: Calcitonin Receptor cAMP Stimulation Activity: EC50
T1 construct: expressed in transfected cells; host or cells: COS-7 (COS7-human CTR Clone #2)
T1 sequence (P30988 25-474): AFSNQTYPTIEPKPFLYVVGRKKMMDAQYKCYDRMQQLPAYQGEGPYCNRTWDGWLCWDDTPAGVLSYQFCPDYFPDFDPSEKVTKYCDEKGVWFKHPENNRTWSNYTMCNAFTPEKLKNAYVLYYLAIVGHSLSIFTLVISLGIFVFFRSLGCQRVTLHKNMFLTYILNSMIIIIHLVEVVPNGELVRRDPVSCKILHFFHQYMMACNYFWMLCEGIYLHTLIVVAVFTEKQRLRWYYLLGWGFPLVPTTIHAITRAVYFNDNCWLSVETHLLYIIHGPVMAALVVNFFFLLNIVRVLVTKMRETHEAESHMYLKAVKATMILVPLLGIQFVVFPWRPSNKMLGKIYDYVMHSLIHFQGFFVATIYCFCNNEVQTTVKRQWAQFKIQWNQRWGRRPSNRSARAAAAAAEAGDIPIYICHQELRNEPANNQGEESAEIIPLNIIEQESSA
Excerpt: Calcitonin receptor (CTR) cAMPAssay
The calcitonin receptor (CTR) belongs to the subfamily of GPCRs known as the secretin or ‘B’ family of GPCRs. Like other class B1 GPCRs, the CT receptor family is canonically coupled to Gs-mediated cAMP production, and measurement of cAMP accumulation has been the primary assay used to determine peptide selectivity and potency.
as §1, with “to create COS7-human CTR Clone #2 stable cell line. 100× concentration” for “and RAMP3, simultaneously. 100×concentration”, “COS7-human CTR Clone #2” for “COS-7/AMY3”
as §2, with “#62AM4PEC). […] cAMP-d2 working” for “#62AM4PEC). 10 μL cAMP-d2 working”

Chain of human calcitonin receptor (CTR) and RAMP3 (AMY3) (O60896 24-148, one chain of several): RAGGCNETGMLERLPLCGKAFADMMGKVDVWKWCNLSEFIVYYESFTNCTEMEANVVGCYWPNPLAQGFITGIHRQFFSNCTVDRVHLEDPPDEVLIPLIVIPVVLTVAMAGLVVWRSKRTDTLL

Row | SMILES | EC50 [1] | EC50 [2]
1 | Cc1nnc(-c2c(CCC3CCOCC3)nc3c(c2-c2ccn4c(Cc5ccc(F)c(F)c5)cnc4c2)S(=O)(=O)CC3C(C)C)o1 (centres unmarked) [Compound 122, 7-(3-[(3,4-difluorophenyl)methyl]-1,3a-diaza-6-indenyl}-3-isopropyl-6-(5-methyl-1,3,4-oxadiazol-2-yl)-5-[2-(tetrahydro-2H-pyran-4-yl)ethyl]-1λ^6-thia-4-aza-1,1-indandione] | 1540 nM | 49.2 nM
2 | Cc1nnc(-c2c(CCc3ccc(F)cc3)nc3c(c2-c2ccc(C(=O)NCc4ccc(F)c(F)c4)s2)C(=O)N2CCOC[C@@H]32)o1 [Compound 68, (R)—N-(3,4-difluorobenzyl)-5-(2-(4-fluorophenethyl)-3-(5-methyl-1,3,4-oxadiazol-2-yl)-5-oxo-7,8,10,10a-tetrahydro-5H-pyrido[2′,3′:3,4]pyrrolo[2,1-c][1,4]oxazin-4-yl)thiophene-2-carboxamide] | 168 nM | 3 nM
3 | Cc1cc(-c2c(CCC3CCOCC3)nc3c(c2-c2ccc4c(c2)oc(=O)n4Cc2ccc(C#N)cn2)S(=O)(=O)N2CCC[C@@H]32)ccn1 [Compound 145, 6-[(6-((2S)-10-(2-methyl-4-pyridyl)-7,7-dioxo-11-[2-(tetrahydro-2H-pyran-4-yl)ethyl]-7λ^6-thia-6,12-diazatricyclo[6.4.0.0^2,6]dodeca-1(12),8,10-trien-9-yl}-2-oxo-1,3-benzoxazol-3-yl)methyl]nicotinonitrile] | 78.8 nM | 6.17 nM
4 | Cc1nnc(-c2c(CCC34CCC(CC3)OC4)nc3c(c2-c2cc4ccnc(N[C@@H]5CCc6ncccc65)c4s2)c(=O)n2n3CCC2)o1 [Compound 147, 6-((2S)-2-methyl-10-(2-methyl-4-pyridyl)-7-oxo-11-[2-(tetrahydro-2H-pyran-4-yl)ethyl]-6,12-diazatricyclo[6.4.0.0,^1I]dodeca-1(12),8,10-trien-9-yl}-3-[(5-chloro-3-fluoro-2-pyridyl)methyl]-1,3-benzoxazol-2(3H)-one] | 180 nM | 17.2 nM
5 | Cc1nnc(-c2c(CCC3CCOCC3)nc3c(c2-c2ccc4c(c2)oc(=O)n4Cc2ccc(C#N)c(F)c2)C(=O)N2CCOC[C@@H]32)o1 [Compound 104, 4-[(6-((4aR)-7-(5-methyl-1,3,4-oxadiazol-2-yl)-9-oxo-6-[2-(tetrahydro-2H-pyran-4-yl)ethyl]-1,2,4,4a-tetrahydro-9H-3-oxa-5,9a-diazafluoren-8-yl}-2-oxo-1,3-benzoxazol-3-yl)methyl]-2-fluorobenzonitrile] | 42.4 nM | 1.25 nM
6 | Cc1nnc(-c2c(CCC3CCOCC3)nc3c(c2-c2cc4ccnc(N[C@H](C)c5cncc(F)c5)c4s2)S(=O)(=O)CC3C(C)C)o1 (stereo partly drawn) [Compound 93, [(R)-1-(5-fluoro-3-pyridyl)ethyl](2-(3-isopropyl-6-(5-methyl-1,3,4-oxadiazol-2-yl)-1,1-dioxo-5-[2-(tetrahydro-2H-pyran-4-yl)ethyl]-1λ^6-thia-4-aza-7-indanyl}-1-thia-6-aza-7-indenyl)amine] | 471 nM | 42.2 nM
7 | Cc1nnc(-c2c(CCC3CCOCC3)nc3c(c2-c2cnc4c(ccn4Cc4ccc(C#N)cn4)c2)C(=O)N2CCC[C@@H]32)o1 [Compound 124, 6-[(5-((2S)-10-(5-methyl-1,3,4-oxadiazol-2-yl)-7-oxo-11-[2-(tetrahydro-2H-pyran-4-yl)ethyl]-6,12-diazatricyclo[6.4.0.0,^1I]dodeca-1(12),8,10-trien-9-yl}-1H-1,7-diazainden-1-yl)methyl]nicotinonitrile] | 2700 nM | 216 nM
8 | Cc1nnc(-c2c(CCC3CCOCC3)nc3c(c2-c2cc4ccnc(N[C@@H]5CCc6ncccc65)c4s2)c(=O)n2n3CCC2)o1 [Compound 113, 9-{7-[(R)-4-aza-1-indanylamino]-1-thia-6-aza-2-indenyl}-10-(5-methyl-1,3,4-oxadiazol-2-yl)-11-[2-(tetrahydro-2H-pyran-4-yl)ethyl]-2,6,12-triazatricyclo[6.4.0.0^2,6]dodeca-1(12),8,10-trien-7-one] | 1080 nM | 95.6 nM
9 | CC(C)c1nnc(-c2c(CCC34CCC(CC3)OC4)nc3c(c2-c2ccc4c(c2)oc(=O)n4Cc2ccc(C#N)c(F)c2)c(=O)n2n3CCC2)o1 [Compound 153, 2-fluoro-4-({6-[10-(5-isopropyl-1,3,4-oxadiazol-2-yl)-11-(2-(2-oxabicyclo[2.2.2]oct-4-yl)ethyl}-7-oxo-2,6,12-triazatricyclo[6.4.0.0^2,6]dodeca-1(12),8,10-trien-9-yl]-2-oxo-1,3-benzoxazol-3-yl}methyl)benzonitrile] | 12.2 nM | 0.324 nM
10 | COc1cccc2c1CC[C@H]2Nc1nccc2cc(-c3c4c(nc(CCc5ccc(F)cc5)c3-c3nnc(N)o3)[C@@H]3CCCN3C4=O)sc12 [Compound 86, (2S)-9-(7-[(R)-4-methoxy-1-indanylamino]-1-thia-6-aza-2-indenyl}-10-(5-amino-1,3,4-oxadiazol-2-yl)-11-[2-(p-fluorophenyl)ethyl]-6,12-diazatricyclo[6.4.0.0^2,^6]dodeca-1(8),9,11-trien-7-one] | 9.66 nM | 0.398 nM
11 | CC(C)c1nnc(-c2c(CCC3CCOCC3)nc3c(c2-c2ccc4c(c2)oc(=O)n4Cc2ccc(C#N)c(F)c2)c(=O)n2n3CCC2)o1 [Compound 150, 2-fluoro-4-[(6-(10-(5-isopropyl-1,3,4-oxadiazol-2-yl)-7-oxo-11-[2-(tetrahydro-2H-pyran-4-yl)ethyl]-2,6,12-triazatricyclo[6.4.0.0^2,6]dodeca-1(8),9,11-trien-9-yl}-2-oxo-1,3-benzoxazol-3-yl)methyl]benzonitrile] | 15.2 nM | 1.86 nM
12 | Cc1nnc(-c2c(CCC3CCOCC3)nc3c(c2-c2cc4ccnc(N[C@@H]5CCc6ncccc65)c4s2)S(=O)(=O)CC3C)o1 (stereo partly drawn) [Compound 94, N—(R)-4-aza-1-indanyl(2-(3-methyl-6-(5-methyl-1,3,4-oxadiazol-2-yl)-1,1-dioxo-5-[2-(tetrahydro-2H-pyran-4-yl)ethyl]-1λ^6-thia-4-aza-7-indanyl}-1-thia-6-aza-7-indenyl)amine] | 1150 nM | 179 nM
13 | Cc1nnc(-c2c(CCc3ccc(F)cc3)nc3c(c2-c2cc4ccnc(N[C@@H]5CCc6ncccc65)c4s2)c(=O)n2n3CCC2)o1 [Compound 139, 9-(7-[(R)-4-aza-1-indanylamino]-1-thia-6-aza-2-indenyl}-11-[2-(p-fluorophenyl)ethyl]-10-(5-methyl-1,3,4-oxadiazol-2-yl)-2,6,12-triazatricyclo[6.4.0.0^2,6]dodeca-1(8),9,11-trien-7-one] | 150 nM | 8.78 nM
